Measured values from PMC9331544, “Molecular Physicochemical Properties of Selected Pesticides as Predictive Factors for Oxidative Stress and Apoptosis-Dependent Cell Death in Caco-2 and HepG2 Cells” (International Journal of Molecular Sciences, 2022).
Read-outs that look alike come from different tables or passages of the source.

Tests used:
HepG2 cells [1] = assay: Lipid peroxidation, DHPE-FITC probe, flow cytometry; type: cell-based, human; conditions: HepG2, 24 h, tested concentrations
Experimental: (§1) Lipid peroxidation was evaluated using the DHPE-FITC probe. Cells re-suspended in PBS (see Section 3.3.1) were incubated with 20 μM DHPE-FITC, for 20 min in the dark at room temperature (as describe).

Caco-2 cells [2] = assay: as above; type: cell-based, human; conditions: Caco-2, 24 h, tested concentrations
Experimental: as §1

HepG2 cells [3] = conditions: 24 h; for HepG2 FL2/FL1 ratio: mean ± SD
Source text: (§2) Given the role of mitochondria in both oxidative stress and cell death (apoptosis), we evaluated the mitochondrial membrane potential (MMP) using the JC-1 probe (see methods for details). This probe accumulates in the mitochondria in the form of J-aggregates when in normal mitochondrial conditions (polarized) and presents red fluorescence. By contrast, in unhealthy cells, when depolarization occurs, JC-1 enters the mitochondria in lower concentrations forming monomers inducing a fluorescence shift to green fluorescence, thus the loss of MMP is observed through flow cytometry as a reduction in red (FL2) and an increase in green (FL1) fluorescence, or as a reduction in red/green (FL2/FL1) fluorescence ratio [45, 46].
(§3) Pesticide-induced oxidative stress and apoptosis/necrosis events were analysed by flow cytometry. For this, one colour and two-colour flow cytometry assays were performed, using a BD Accuri™ C6 cytometer (Franklin Lakes, NJ, USA) equipment for data acquisition. Each assay was performed at least in triplicate (n = 3) and 5000 gated events were collected from each sample. Data analysis was performed using BD Accuri™ C6 Software, version 1.0.264.21 supplied by Becton Dickinson (Franklin Lakes, NJ, USA).
(§4) Caco-2 and HepG2 cells (handled as described in Section 3.2.1) were seeded in 12-well microplates (at 5 × 10^4 cells/mL density; 750 µL/well), and allowed to adhere and stabilize for 48 h in the incubator. […] Negative control cells (non-exposed cells) were included in each assay. After a 24 h incubation with test solutions, cells were washed with phosphate buffer saline (PBS) solution and then detached from the microplates (as in Section 3.2.1) and placed in centrifuge tubes and centrifuged (5 min, 3000 rpm, bench micro-centrifuge). After eliminating the supernatant, cells were washed in PBS solution through another centrifuge cycle. Then cells were divided before being incubated with the specific markers to assess oxidative stress markers and cell apoptosis/necrosis.
(§5) Mitochondrial membrane potential was analysed using JC-1 probe following the procedures as described by the manufacturer. Caco-2 and HepG2 cells suspended in PBS were centrifuged (5 min, 3000 rpm, bench micro-centrifuge), the supernatant was removed and 200 μL of JC-1 solution (2 μM; diluted in FBS-free culture media) was added to each sample. The samples were incubated for 20 min at 37 °C (in a CO2 incubator) and then analysed by flow cytometry. Negative control, non-exposed, and positive control cells exposed to the protonophore FCCP (5 μM; carbonyl cyanide p-trifluoromethoxyphenylhydrazone) were performed in each set of experiments.

Caco-2 cells [4] = conditions: for Caco-2 FL2/FL1 ratio: mean ± SD
Source text: as §2, §3, §4, §5

Caco-2 cells [5] = assay: Literature: Caco-2 cell viability; type: cell-based, human; conditions: Caco-2, 24 h, ref [34] value vs Table 1
HepG2 cells [6] = assay: Alamar Blue cell viability/cytotoxicity assay; type: cell-based, human; conditions: HepG2
Experimental: (§6) In this study, to assess the cytotoxic activity of GLY, IMD, and IMZ, human epithelial colorectal adenocarcinoma (Caco-2), cell lines service (CLS), (Eppelheim, Germany) and human hepatocellular carcinoma (HepG2) (ATCC, Rockville, Maryland, USA) cells were used. Cells were cultured in complete culture media (Dulbecco’s Modified Eagle Media (DMEM), supplemented with 1 mM L-glutamine, 10% (v/v) foetal bovine serum (FBS), and antibiotics (penicillin at 100 U/mL, and streptomycin at 100 μg/mL)) and maintained at 5% CO2/95% air; 37 °C, controlled humidity, in an incubator. Cells were grown in T25 culture flasks to near confluence. Then, these adherent cells were treated with trypsin (trypsin-EDTA), for detachment and subculture, which was stopped using complete culture medium (1:1, trypsin:culture media) as soon as cells were detached (about 6 and 8 minutes of trypsin treatment for HepG2 and Caco-2 cells, respectively). Detached cells were gently re-suspended with a Pasteur pipette and then a sample was counted using an automated cell counter (TC10™, BIORAD, Portugal). A suspension of cells in fresh culture media, at 5 × 10^4 cells/mL was prepared to seed into 96-well microplates (100 µL/well). After seeding, cells were placed in the incubator for 48 h (to adhere and stabilize) before being used, for other details see [66, 67].
(§7) Cell viability was assessed using the Alamar Blue® (AB) assay, after exposure to the pesticides. In summary, cells seeded into 96-well microplates were subjected to various concentrations of the pesticides (GLY: 0–1 mM; IMD: 0–1 mM; IMZ: 0–0.3 mM). To prepare the test solutions, the appropriate volume of the pesticide stock solution was diluted in FBS-free culture media just before its application to the cells. Stock solution of GLY was prepared in water (at 40 mM), and stock solutions of IMD and IMZ were prepared in DMSO (at 20 mM). After 24 h or 48 h of exposure, the test solutions were removed and the Alamar Blue solution (100 µL/well; 10% (v/v) in FBS-free medium) was immediately added to the cells, followed by a further 5 h incubation. The absorbance was then read at 570 and 620 nm using a microplate reader (Multiskan EX; MTX Lab Systems, Inc., Bradenton, FL, USA) and the percentage of the AB reduction was calculated according to the manufacturer’s instructions, as described before. Cell viability, at each condition, was calculated and expressed as percentage of control cells (non-exposed cells).
(§8) The concentrations needed to reduce cell viability by 50% (IC50) were calculated from three independent experiments (each one performed in quadruplicates), as described.

Caco-2 cells [7] = assay: Alamar Blue cell viability/cytotoxicity assay; type: cell-based, human
Experimental: as §6, §7, §8

[8] = Alamar Blue cell viability/cytotoxicity assay; type: cell-based, human; conditions: human, mean ± SD (n = 4), read-out: IC50 of pesticide-induced cytotoxicity
Experimental: as §6, §7, §8

C=CCOC(Cn1ccnc1)c1ccc(Cl)cc1Cl (centres unmarked) [Imazalil, imazalil]
lipid peroxidation (LP) vs control (in words) (HepG2 cells [1]): did not increase lipid peroxidation | lipid peroxidation (LP) vs control (in words) (Caco-2 cells [2]): induced significant LP | FL2/FL1 ratio reduction (% of control) (HepG2 cells [3]; HepG2, 25 μM): 56.22±16.07 % of control | HepG2 FL2/FL1 ratio (HepG2 cells [3]; HepG2, 25 μM): 0.10±0.03 | FL2/FL1 ratio reduction (% of control) (HepG2 cells [3]; HepG2, 50 μM): 57.15±8.10 % of control | HepG2 FL2/FL1 ratio (HepG2 cells [3]; HepG2, 50 μM): 0.10±0.02 | FL2/FL1 ratio reduced, relative to negative control (HepG2 cells [3]; HepG2, 75 μM): 3.38 times | FL2/FL1 ratio reduction (% of control) (HepG2 cells [3]; HepG2, 75 μM): 72.95±0.28 % of control | HepG2 FL2/FL1 ratio (HepG2 cells [3]; HepG2, 75 μM): 0.06±0.01 | FL2/FL1 ratio reduction (% of control) (HepG2 cells [3]; HepG2, 75 μM, listed as IMZ): ~ 73 % of control | FL2/FL1 ratio reduction (% of control) (Caco-2 cells [4]; Caco-2, 50 μM, 24 h): 30.83±9.05 % of control | Caco-2 FL2/FL1 ratio (Caco-2 cells [4]; Caco-2, 50 μM, 24 h): 0.55±0.02 | FL2/FL1 ratio reduced, relative to negative control (Caco-2 cells [4]; Caco-2, 75 μM, 24 h): 1.54 times | FL2/FL1 ratio reduction (% of control) (Caco-2 cells [4]; Caco-2, 75 μM, 24 h): 34.30±6.61 % of control | Caco-2 FL2/FL1 ratio (Caco-2 cells [4]; Caco-2, 75 μM, 24 h): 0.52±0.03 | FL2/FL1 ratio reduction (% of control) (Caco-2 cells [4]; Caco-2, 75 μM, 24 h, listed as IMZ): ~ 34 % of control | FL2/FL1 ratio reduction (% of control) (Caco-2 cells [4]; Caco-2, 250 μM, 24 h): 96.08±0.47 % of control | Caco-2 FL2/FL1 ratio (Caco-2 cells [4]; Caco-2, 250 μM, 24 h): 0.03±0.01 | change in mitochondrial membrane potential (in words) (Caco-2 cells [4]; Caco-2, 24 h, tested concentrations, listed as IMZ): induced high changes in Caco-2 MMP | literature IC50 lower than the IC50 here reported (Caco-2 cells [5]): 2.53 fold | decrease in IC50 when doubling the exposure time (24 h to 48 h) (HepG2 cells [6]): 2 fold | IC50 for Caco-2 cells relative to HepG2 cells (Caco-2 cells [7]; 24 h exposure): 2.7 fold | IC50 for Caco-2 cells relative to HepG2 cells (Caco-2 cells [7]; 48 h exposure): 4 fold | IC50 at 24 h relative to IC50 at 48 h (Caco-2 cells [7]; Caco-2): 1.35 fold | IC50 (Caco-2 cells [7]; Caco-2, 24 h exposure, mean ± SD (n = 4), read-out: IC50 of pesticide-induced cytotoxicity): 254 ± 3 µM | IC50 at 24 h ([8]; Caco-2 cells, Caco-2, 24 h exposure): 254 ± 3.37 µM | IC50 at 48 h ([8]; Caco-2 cells, Caco-2, 48 h exposure): 187 ± 2 µM | IC50 at 24 h ([8]; HepG2 cells, HepG2, 24 h exposure): 94 ± 12 µM | IC50 at 48 h ([8]; HepG2 cells, HepG2, 48 h exposure): 47 ± 3 µM
